{"source": "paper PMC10447267", "about": "“Assessment of the potential of the MET inhibitor tepotinib to affect the pharmacokinetics of CYP3A4 and P-gp substrates” (Investigational New Drugs, 2023)", "key": {"CYP1A2": {"molecular_target": "T1, CYP1A2 (Homo sapiens, UniProt P05177)", "T1 construct": "pooled mixed-gender human liver microsomes; from tissue; host or cells: pooled mixed-gender human liver microsomes", "T1 sequence (P05177 1-516)": "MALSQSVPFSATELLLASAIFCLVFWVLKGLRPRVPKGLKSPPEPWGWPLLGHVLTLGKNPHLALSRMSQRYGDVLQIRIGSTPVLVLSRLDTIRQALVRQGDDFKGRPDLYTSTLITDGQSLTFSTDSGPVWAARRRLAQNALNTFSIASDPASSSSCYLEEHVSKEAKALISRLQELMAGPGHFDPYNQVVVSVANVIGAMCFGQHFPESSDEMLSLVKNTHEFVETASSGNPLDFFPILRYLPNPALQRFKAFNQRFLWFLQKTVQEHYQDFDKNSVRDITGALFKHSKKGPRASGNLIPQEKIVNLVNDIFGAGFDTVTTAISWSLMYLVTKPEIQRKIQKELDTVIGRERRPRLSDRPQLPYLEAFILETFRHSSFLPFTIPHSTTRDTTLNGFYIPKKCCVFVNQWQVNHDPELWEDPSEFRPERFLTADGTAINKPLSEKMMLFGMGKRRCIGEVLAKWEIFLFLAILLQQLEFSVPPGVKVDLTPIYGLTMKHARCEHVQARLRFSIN", "assay": "CYP1A2 inhibition in pooled human liver microsomes", "format": "in vitro ADME", "conditions": "for inhibition at 49.5 µM: both sexes, human, microsomes", "procedure": "(§1) The potential of tepotinib and MSC2571109A to inhibit CYP450 enzymes CYP1A2, 2A6, 2B6, 2C8, 2C9, 2C19, 2D6, 2E1, and 3A4/5 in vitro was evaluated using CYP-catalyzed reactions in pooled mixed-gender human liver microsomes using specific substrates and liquid chromatography/tandem mass spectrometry (LC–MS/MS) readouts. […] Testosterone 6β-hydroxylation was assessed in the MSC2571109A study. Assessments of mechanism-based inhibition of the above listed CYP450 enzymes were conducted after pre-incubation of the microsomes with tepotinib or MSC2571109A. A brief summary of the incubation methods, including details of substrates used for the other CYP enzymes (which are not pertinent to this article) are presented in Online Resource 1. The LC–MS/MS-based methods used were consistent with those previously described in the literature."}, "CYP2A6": {"molecular_target": "T2, CYP2A6 (Homo sapiens, UniProt P11509)", "T2 construct": "pooled mixed-gender human liver microsomes; from tissue; host or cells: pooled mixed-gender human liver microsomes", "T2 sequence (P11509 1-494)": "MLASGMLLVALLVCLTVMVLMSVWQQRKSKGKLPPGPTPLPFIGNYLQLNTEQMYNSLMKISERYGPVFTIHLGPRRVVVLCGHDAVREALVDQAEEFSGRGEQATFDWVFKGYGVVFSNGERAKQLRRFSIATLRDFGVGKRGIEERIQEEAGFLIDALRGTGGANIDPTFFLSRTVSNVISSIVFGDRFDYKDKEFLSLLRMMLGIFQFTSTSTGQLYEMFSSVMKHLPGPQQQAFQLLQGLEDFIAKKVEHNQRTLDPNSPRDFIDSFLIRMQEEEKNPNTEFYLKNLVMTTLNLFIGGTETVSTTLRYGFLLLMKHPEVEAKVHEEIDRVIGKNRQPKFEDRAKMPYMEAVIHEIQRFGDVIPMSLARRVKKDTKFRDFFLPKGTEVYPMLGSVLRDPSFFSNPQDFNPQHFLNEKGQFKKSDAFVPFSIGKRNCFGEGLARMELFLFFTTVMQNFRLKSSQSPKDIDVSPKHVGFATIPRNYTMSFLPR", "assay": "CYP2A6 inhibition in pooled human liver microsomes", "format": "in vitro ADME", "conditions": "Coumarin 7-hydroxylation; for inhibition at 49.5 µM: both sexes, human, pooled human liver microsomes, probe coumarin", "procedure": "as §1"}, "CYP2D6": {"molecular_target": "T3, CYP2D6 (Homo sapiens, UniProt P10635)", "T3 construct": "pooled mixed-gender human liver microsomes; from tissue; host or cells: pooled mixed-gender human liver microsomes", "T3 sequence (P10635 whole entry)": "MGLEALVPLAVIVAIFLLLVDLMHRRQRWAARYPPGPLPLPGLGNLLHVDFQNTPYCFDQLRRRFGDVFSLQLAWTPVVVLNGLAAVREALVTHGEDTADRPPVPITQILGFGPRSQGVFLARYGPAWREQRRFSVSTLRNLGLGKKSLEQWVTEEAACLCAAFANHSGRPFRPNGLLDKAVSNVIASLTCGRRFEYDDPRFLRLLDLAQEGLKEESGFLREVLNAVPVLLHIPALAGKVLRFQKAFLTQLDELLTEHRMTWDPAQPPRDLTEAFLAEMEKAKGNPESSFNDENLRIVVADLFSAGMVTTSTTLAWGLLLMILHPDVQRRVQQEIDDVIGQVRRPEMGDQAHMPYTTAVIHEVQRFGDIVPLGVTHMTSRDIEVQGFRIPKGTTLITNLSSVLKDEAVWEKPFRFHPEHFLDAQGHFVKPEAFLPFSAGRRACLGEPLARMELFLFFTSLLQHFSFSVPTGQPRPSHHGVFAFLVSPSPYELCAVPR", "assay": "biochemical", "format": "in vitro ADME", "conditions": "for inhibition at 49.5 µM: both sexes, human, microsomes", "procedure": "as §1"}, "CYP2E1": {"molecular_target": "T4, CYP2E1 (Homo sapiens, UniProt P05181)", "T4 construct": "pooled mixed-gender human liver microsomes; from tissue; host or cells: pooled mixed-gender human liver microsomes", "T4 sequence (P05181 whole entry)": "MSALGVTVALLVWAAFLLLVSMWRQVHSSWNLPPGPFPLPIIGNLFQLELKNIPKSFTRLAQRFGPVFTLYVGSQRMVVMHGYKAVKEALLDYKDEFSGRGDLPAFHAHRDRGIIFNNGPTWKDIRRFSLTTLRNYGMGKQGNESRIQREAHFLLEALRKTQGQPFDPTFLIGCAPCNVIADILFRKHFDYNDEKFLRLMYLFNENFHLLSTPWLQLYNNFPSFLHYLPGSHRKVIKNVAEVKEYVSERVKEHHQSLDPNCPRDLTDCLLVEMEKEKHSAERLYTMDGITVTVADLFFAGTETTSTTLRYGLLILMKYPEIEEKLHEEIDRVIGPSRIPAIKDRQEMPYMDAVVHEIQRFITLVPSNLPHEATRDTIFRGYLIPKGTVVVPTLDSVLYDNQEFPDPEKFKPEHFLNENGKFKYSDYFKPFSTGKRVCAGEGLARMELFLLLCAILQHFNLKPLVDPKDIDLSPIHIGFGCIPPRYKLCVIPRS", "assay": "biochemical", "format": "in vitro ADME", "conditions": "for inhibition at 49.5 µM: both sexes, human, microsomes", "procedure": "as §1"}, "CYP2B6": {"test_system": "CYP2B6", "assay": "CYP2B6 activity induction in primary human hepatocyte cultures", "format": "in vitro ADME", "conditions": "enzyme activity quantification", "procedure": "(§2) In vitro studies in primary human hepatocyte cultures were conducted to assess the potential of tepotinib to induce human CYP1A1/2, 2B6 and 3A4/5 activity, the latter based on testosterone 6β-hydroxylation reactions (Online Resource 2). […] The studies included positive (rifampin) and vehicle (DMSO) controls. A negative control (flumazenil) was also included in the mRNA studies. The study designs, test systems and selection of prototypical inducers used in these studies were consistent with PhRMA, FDA and EMA guidelines."}, "CYP3A4/5": {"test_system": "CYP3A4/5", "format": "in vitro ADME, human", "procedure": "as §2"}, "P-gp": {"molecular_target": "P-gp (Homo sapiens, UniProt P08183)", "sequence (P08183 whole entry)": "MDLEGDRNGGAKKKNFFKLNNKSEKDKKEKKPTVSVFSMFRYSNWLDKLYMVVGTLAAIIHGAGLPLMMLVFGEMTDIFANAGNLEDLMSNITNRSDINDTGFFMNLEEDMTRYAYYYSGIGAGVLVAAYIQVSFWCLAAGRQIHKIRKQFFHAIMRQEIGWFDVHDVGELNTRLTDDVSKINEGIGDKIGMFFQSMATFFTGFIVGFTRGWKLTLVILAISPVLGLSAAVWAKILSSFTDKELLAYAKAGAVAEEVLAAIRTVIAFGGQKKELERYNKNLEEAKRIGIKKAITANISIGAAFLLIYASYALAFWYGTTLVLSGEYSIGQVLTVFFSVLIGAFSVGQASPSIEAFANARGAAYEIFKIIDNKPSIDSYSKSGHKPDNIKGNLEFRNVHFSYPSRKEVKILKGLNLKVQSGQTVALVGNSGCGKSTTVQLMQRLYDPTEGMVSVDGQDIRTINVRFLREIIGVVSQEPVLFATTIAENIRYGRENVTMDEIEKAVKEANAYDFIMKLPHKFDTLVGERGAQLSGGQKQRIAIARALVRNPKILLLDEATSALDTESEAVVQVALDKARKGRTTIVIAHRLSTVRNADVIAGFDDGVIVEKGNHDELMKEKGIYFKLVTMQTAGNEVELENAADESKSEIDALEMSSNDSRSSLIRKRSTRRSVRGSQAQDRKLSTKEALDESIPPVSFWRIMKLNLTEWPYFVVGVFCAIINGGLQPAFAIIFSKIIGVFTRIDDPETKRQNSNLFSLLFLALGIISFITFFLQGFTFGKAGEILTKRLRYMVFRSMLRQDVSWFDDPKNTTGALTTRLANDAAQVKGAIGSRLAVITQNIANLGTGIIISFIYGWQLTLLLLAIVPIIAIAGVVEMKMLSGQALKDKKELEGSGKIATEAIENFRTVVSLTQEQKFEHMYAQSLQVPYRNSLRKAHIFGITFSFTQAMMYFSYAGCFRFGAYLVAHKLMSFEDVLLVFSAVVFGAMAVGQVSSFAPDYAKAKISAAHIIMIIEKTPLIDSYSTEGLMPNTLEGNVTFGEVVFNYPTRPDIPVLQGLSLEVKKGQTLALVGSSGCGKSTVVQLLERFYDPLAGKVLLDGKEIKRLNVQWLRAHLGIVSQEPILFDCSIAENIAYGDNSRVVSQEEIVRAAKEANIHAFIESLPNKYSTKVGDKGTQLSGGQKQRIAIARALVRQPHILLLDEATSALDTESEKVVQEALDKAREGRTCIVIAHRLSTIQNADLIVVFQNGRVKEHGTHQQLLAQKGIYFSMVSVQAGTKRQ", "assay": "P-gp inhibition in Caco-2 cell monolayers with [3H]-digoxin", "format": "in vitro ADME", "set-up": "An in vitro assay in Caco-2 cell monolayers; endogenous in cells; host or cells: Caco-2", "procedure": "An in vitro assay in Caco-2 cell monolayers was performed to assess the P-gp inhibition potential of tepotinib (Online Resource 4). [^3H]-digoxin was used as a P-gp probe substrate. Control experiments were conducted to ensure acceptable performance of the cells. The extent of inhibition in these studies, expressed as IC50, was determined by quantification of the transport or uptake of ^3H-digoxin in Caco-2 cells in the absence and presence of tepotinib.\nTo assess the potential clinical risk and to identify whether an in vivo DDI study was required, drug concentration ([I])/IC50 ratios and/or R-values were calculated considering the mean human steady state exposure of parent drug and its metabolite, observed at the clinical dose of 500 mg tepotinib. Results were assessed according to both FDA and EMA criteria."}, "[1]": {"conditions": "P-gp, clinical dose of 500 mg once daily"}}, "note": "Read-outs that look alike come from different tables or passages of the source."}
{"smiles": "CN1CCC(COc2cnc(-c3cccc(Cn4nc(-c5cccc(C#N)c5)ccc4=O)c3)nc2)CC1", "note": "[tepotinib]", "values": [{"measurement": "IC50", "setting": "CYP1A2", "value": "> 49.5", "unit": "µM"}, {"measurement": "Potential for time-dependent inhibition", "setting": "CYP1A2; Phenacetin O-dealkylation", "value": "Little or No"}, {"measurement": "inhibition at 49.5 µM", "setting": "CYP1A2; Phenacetin O-dealkylation, 30-min preincubation, read-out: Time-dependent inhibition, maximum inhibition at 49.5 µM", "value": 26, "unit": "%"}, {"measurement": "inhibition at 49.5 µM", "setting": "CYP1A2; Phenacetin O-dealkylation, zero-minute preincubation, read-out: Direct inhibition, maximum inhibition at 49.5 µM", "value": 11, "unit": "%"}, {"measurement": "IC50", "setting": "CYP1A2; read-out: Time-dependent inhibition IC50, Phenacetin O-dealkylation, 30-min preincubation", "value": "> 49.5", "unit": "µM"}, {"measurement": "Potential for time-dependent inhibition", "setting": "CYP2A6", "value": "Little or No"}, {"measurement": "IC50", "setting": "CYP2A6; 30-min preincubation, read-out: Time-dependent inhibition IC50", "value": 39, "unit": "µM"}, {"measurement": "inhibition at 49.5 µM", "setting": "CYP2A6; 30-min preincubation, read-out: Time-dependent inhibition, maximum inhibition at 49.5 µM", "value": 52, "unit": "%"}, {"measurement": "inhibition at 49.5 µM", "setting": "CYP2A6; zero-minute preincubation, read-out: Direct inhibition, maximum inhibition at 49.5 µM", "value": 51, "unit": "%"}, {"measurement": "IC50", "setting": "CYP2A6; human liver microsomes, zero-minute preincubation, read-out: Direct inhibition IC50", "value": "> 49.5", "unit": "µM"}, {"measurement": "IC50", "setting": "CYP2D6", "value": "> 49.5", "unit": "µM"}, {"measurement": "Potential for time-dependent inhibition", "setting": "CYP2D6; Dextromethorphan O-demethylation", "value": "Little or No"}, {"measurement": "inhibition at 49.5 µM", "setting": "CYP2D6; Dextromethorphan O-demethylation, 30-min preincubation, read-out: Time-dependent inhibition, maximum inhibition at 49.5 µM", "value": 24, "unit": "%"}, {"measurement": "inhibition at 49.5 µM", "setting": "CYP2D6; Dextromethorphan O-demethylation, zero-minute preincubation, read-out: Direct inhibition, maximum inhibition at 49.5 µM", "value": 50, "unit": "%"}, {"measurement": "IC50", "setting": "CYP2D6; read-out: Time-dependent inhibition IC50, Dextromethorphan O-demethylation, 30-min preincubation", "value": "> 49.5", "unit": "µM"}, {"measurement": "IC50", "setting": "CYP2E1", "value": "> 49.5", "unit": "µM"}, {"measurement": "Potential for time-dependent inhibition", "setting": "CYP2E1; Chlorzoxazone 6-hydroxylation", "value": "Little or No"}, {"measurement": "inhibition at 49.5 µM", "setting": "CYP2E1; Chlorzoxazone 6-hydroxylation, 30-min preincubation, read-out: Time-dependent inhibition, maximum inhibition at 49.5 µM", "value": 17, "unit": "%"}, {"measurement": "inhibition at 49.5 µM", "setting": "CYP2E1; Chlorzoxazone 6-hydroxylation, zero-minute preincubation, read-out: Direct inhibition, maximum inhibition at 49.5 µM", "value": 19, "unit": "%"}, {"measurement": "IC50", "setting": "CYP2E1; read-out: Time-dependent inhibition IC50, Chlorzoxazone 6-hydroxylation, 30-min preincubation", "value": "> 49.5", "unit": "µM"}, {"measurement": "Induction of CYP2B6 activity", "setting": "CYP2B6", "value": "less than 40 % of positive control"}, {"measurement": "Induction of CYP3A4/5 activity (in words)", "setting": "CYP3A4/5; in vitro", "value": "did not induce"}, {"measurement": "Induction of CYP3A4/5 activity", "setting": "CYP3A4/5; primary human hepatocyte cultures, enzyme activity quantification (testosterone 6β-hydroxylation)", "value": "less than 40 % of positive control"}, {"measurement": "IC50", "setting": "P-gp; Caco-2 cell monolayers, [3H]-digoxin probe substrate, read-out: Apparent IC50, P-gp inhibition", "value": 0.41, "unit": "µM"}, {"measurement": "[I]/IC50 ratio (intestinal)", "setting": "P-gp; [1]", "value": 8917}, {"measurement": "[I]/IC50 ratio (systemic)", "setting": "P-gp; [1]", "value": 0.39}]}
